From ChEMBL document CHEMBL1125324, “Development of a novel class of cyclic hexapeptide oxytocin antagonists based on a natural product” (J Med Chem, 1992)
≈ marks a conversion by molar mass, not a printed value. *1 amine or outer side, *2 acyl side, *3 side chain or, on linkers, in order; H or OH if unused. Where a SMILES comes first, the peptide text is derived from it. [ ]: non-standard residue; d: D form. X1 = C=CCN([C@H](Cc1ccccc1)C(=O)[*:2])[*:1]; Piz(1,6-dehydro) = O=C(O)[C@@H]1CCC=NN1; dPiz(1,6-dehydro) = O=C(O)[C@H]1CCC=NN1; d1Nal = N[C@H](Cc1cccc2ccccc12)C(=O)O; d2Nal = N[C@H](Cc1ccc2ccccc2c1)C(=O)O; dNMeH = CN[C@H](Cc1c[nH]cn1)C(=O)O; dNMeF = CN[C@H](Cc1ccccc1)C(=O)O; Pip = O=C(O)[C@@H]1CCCCN1; dPip = O=C(O)[C@H]1CCCCN1; NMeA = CN[C@@H](C)C(=O)O; Nle = CCCC[C@H](N)C(=O)O; Orn = NCCC[C@H](N)C(=O)O; dNMeA = CN[C@H](C)C(=O)O

Legend:
[1] = target: T1, Oxytocin receptor (Rattus norvegicus, UniProt P70536); assay: Concentration required to displace 50% of [3H]oxytocin from rat uterine receptor.
T1 sequence (P70536 whole entry): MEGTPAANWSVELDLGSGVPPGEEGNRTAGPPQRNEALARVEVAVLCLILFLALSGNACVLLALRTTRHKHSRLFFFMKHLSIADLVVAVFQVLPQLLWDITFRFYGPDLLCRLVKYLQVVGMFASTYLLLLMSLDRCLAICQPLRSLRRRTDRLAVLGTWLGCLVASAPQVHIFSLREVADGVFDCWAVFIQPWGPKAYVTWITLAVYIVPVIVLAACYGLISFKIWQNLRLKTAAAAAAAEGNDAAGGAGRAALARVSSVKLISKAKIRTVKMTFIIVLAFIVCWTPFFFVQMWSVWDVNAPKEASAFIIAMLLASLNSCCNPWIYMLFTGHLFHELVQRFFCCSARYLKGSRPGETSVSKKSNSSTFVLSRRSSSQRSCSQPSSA

[2] = target: Vasopressin V2 receptor (Rattus norvegicus, UniProt Q00788); assay: Inhibition of [3H]arginine vasopressin binding to AVP-V2 site in rat kidney medulla.; type: tissue-based
[3] = target: Vasopressin V1a receptor (Rattus norvegicus, UniProt P30560); assay: Concentration required to displace 50% of [3H]arginine vasopressin from rat liver arginine vasopressin 1A (AVP-V1a) site.
[4] = target: Vasopressin V2 receptor (Rattus norvegicus) (UniProt Q00788); assay: Displacement of [3H]arginine vasopressin from rat kidney medullary (AVP-V2 site) at 10 uM; type: tissue-based
[5] = target: Vasopressin V1a receptor (Rattus norvegicus) (UniProt P30560); assay: Displacement of [3H]arginine vasopressin from rat liver (AVP-V1a site) at 10 uM
[6] = Aqueous solubility was determined; type: physicochemical
[7] = test system: Rattus norvegicus; assay: Dose required for 50% reduction of the contractile response of the uterus to OT (1 ug/kg, iv bolus) in DES-pretreated rats; type: functional

Vasopressin V1a receptor (Rattus norvegicus), sequence (P30560 whole entry, looked up): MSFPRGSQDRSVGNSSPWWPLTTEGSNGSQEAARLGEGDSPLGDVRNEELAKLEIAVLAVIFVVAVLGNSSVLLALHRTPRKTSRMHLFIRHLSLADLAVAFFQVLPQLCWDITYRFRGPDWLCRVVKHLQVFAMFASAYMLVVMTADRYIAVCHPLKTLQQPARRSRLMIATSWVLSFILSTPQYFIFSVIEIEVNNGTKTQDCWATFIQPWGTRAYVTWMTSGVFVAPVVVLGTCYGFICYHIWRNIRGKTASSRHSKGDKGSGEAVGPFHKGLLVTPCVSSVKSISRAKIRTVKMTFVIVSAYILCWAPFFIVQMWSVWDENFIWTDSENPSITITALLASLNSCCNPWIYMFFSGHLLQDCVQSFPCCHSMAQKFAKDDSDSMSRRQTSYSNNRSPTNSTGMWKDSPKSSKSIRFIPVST
Vasopressin V1a receptor, sequence (P30560 whole entry): as the sequence (P30560 whole entry, looked up) above
Vasopressin V2 receptor (Rattus norvegicus), sequence (Q00788 whole entry): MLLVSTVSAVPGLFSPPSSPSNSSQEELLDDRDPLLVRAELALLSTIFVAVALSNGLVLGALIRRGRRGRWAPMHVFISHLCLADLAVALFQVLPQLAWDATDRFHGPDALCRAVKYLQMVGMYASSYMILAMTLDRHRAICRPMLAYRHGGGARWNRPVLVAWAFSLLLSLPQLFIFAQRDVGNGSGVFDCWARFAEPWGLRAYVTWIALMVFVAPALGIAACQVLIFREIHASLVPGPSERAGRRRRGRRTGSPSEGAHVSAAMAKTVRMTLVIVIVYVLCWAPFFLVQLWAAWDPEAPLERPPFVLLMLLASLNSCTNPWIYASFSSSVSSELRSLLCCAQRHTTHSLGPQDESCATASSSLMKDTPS
Vasopressin V2 receptor, sequence (Q00788 whole entry): as above

Compound	IC50 [1] [nM]	IC50 [2] [nM]	IC50 [3] [nM]	inhibition [4] [%]	inhibition [5] [%]	further results
CC[C@H](C)[C@@H]1NC(=O)[C@@H](Cc2ccccc2)NC(=O)[C@@H]2CCCN2C(=O)[C@@H](Cc2ccccc2)N(C)C(=O)[C@H](C)N(C)C(=O)[C@H]2CCCCN2C1=O	2700					
CC[C@H](C)[C@@H]1NC(=O)[C@@H](Cc2cn(C)c3ccccc23)NC(=O)[C@@H]2CCCN2C(=O)[C@@H](Cc2cnc[nH]2)NC(=O)[C@@H]2CCCCN2C(=O)[C@H]2CCCCN2C1=O	10	1300	3700			
C[C@@H]1NC(=O)[C@@H](Cc2ccccc2)NC(=O)[C@@H]2CCCN2C(=O)[C@@H](Cc2ccccc2)N(C)C(=O)[C@@H]2CCCCN2C(=O)[C@H]2CCCCN2C1=O	30000					
CC[C@H](C)[C@H]1C(=O)N2CCCC[C@@H]2C(=O)N2CCCC[C@H]2C(=O)N(C)[C@H](Cc2ccccc2)C(=O)N2CCC[C@H]2C(=O)N[C@H](Cc2ccccc2)C(=O)N1C	25000			19	18	
CC[C@H](C)[C@@H]1NC(=O)[C@@H](Cc2ccccc2)NC(=O)[C@@H]2CCCN2C(=O)[C@@H](Cc2ccccc2)N(C)C(=O)[C@H](CCCCN)NC(=O)[C@H]2CCCCN2C1=O	160	1400	2000			
CC[C@H](C)[C@@H]1NC(=O)[C@@H](Cc2ccccc2)NC(=O)[C@@H]2CCCN2C(=O)[C@@H](Cc2ccccc2)N(C)C(=O)[C@@H]2CCCN2C(=O)[C@H]2CCCCN2C1=O	670			39	33	
CC[C@H](C)[C@@H]1NC(=O)[C@@H](Cc2ccccc2)NC(=O)[C@@H]2CCCN2C(=O)[C@@H](Cc2ccccc2)N(C)C(=O)[C@H](Cc2cnc[nH]2)NC(=O)[C@H]2CCCCN2C1=O	220					
CC[C@H](C)[C@@H]1NC(=O)[C@@H](Cc2cccc3ccccc23)NC(=O)[C@@H]2CCCN2C(=O)[C@@H](Cc2ccccc2)N(C)C(=O)[C@H](CCCCN)NC(=O)[C@H]2CCCCN2C1=O	45	150	510			
CC[C@H](C)[C@@H]1NC(=O)[C@@H](Cc2ccccc2)NC(=O)[C@@H]2CCCCN2C(=O)[C@@H](Cc2ccccc2)N(C)C(=O)[C@@H]2CCCCN2C(=O)[C@H]2CCCCN2C1=O				48	51	
CC[C@H](C)[C@@H]1NC(=O)[C@@H](Cc2ccccc2)NC(=O)[C@@H]2CCCN2C(=O)[C@@H](Cc2ccccc2)N(C)C(=O)[C@H](Cc2c[nH]cn2)NC(=O)[C@H]2CCCCN2C1=O				65	66	
CC[C@H](C)[C@@H]1NC(=O)[C@@H](Cc2ccccc2)NC(=O)[C@@H]2CCCN2C(=O)[C@H](Cc2ccccc2)N(C)C(=O)[C@H](C)N(C)C(=O)[C@H]2CCCCN2C1=O				34	25	
C[C@@H]1NC(=O)[C@@H](Cc2ccccc2)NC(=O)[C@@H]2CCCN2C(=O)[C@H](Cc2ccccc2)N(C)C(=O)[C@@H]2CCCCN2C(=O)[C@H]2CCCCN2C1=O				2	3	
CC[C@H](C)[C@@H]1NC(=O)[C@@H](Cc2ccccc2)NC(=O)[C@@H]2CCCN2C(=O)[C@@H](Cc2ccccc2)N(C)C(=O)[C@H](CC(=O)O)NC(=O)[C@H]2CCCCN2C1=O (cyclo(D[dNMeF]P[dF]I[dPip]))	1500			12	0	
CC[C@H](C)[C@@H]1NC(=O)[C@@H](Cc2ccccc2)NC(=O)[C@@H]2CCCN2C(=O)[C@@H](Cc2ccccc2)N(C)C(=O)[C@@H]2CCCCN2C(=O)[C@@H](C)N(C)C1=O (cyclo(I[dNMeA][Pip][dNMeF]P[dF]))	1500			17	20	
CC[C@H](C)[C@@H]1NC(=O)[C@@H](Cc2ccccc2)NC(=O)[C@@H]2CCCN2C(=O)[C@@H](Cc2ccccc2)N(C)C(=O)[C@@H]2CCCCN2C(=O)[C@H]2CCCN2C1=O (cyclo(I[dP][Pip][dNMeF]P[dF]))	540			43	23	
CC[C@H](C)[C@@H]1NC(=O)[C@@H](Cc2ccc3ccccc3c2)NC(=O)[C@@H]2CCCN2C(=O)[C@@H](Cc2ccccc2)N(C)C(=O)[C@H](CCCCN)NC(=O)[C@H]2CCCCN2C1=O (cyclo(I[dPip]K[dNMeF]P[d2Nal]))	13	110	1300			solubility [6]: 1700 µg/mL (≈ 2100 µM)

Compound	IC50 [1] [nM]	IC50 [2] [nM]	IC50 [3] [nM]	inhibition [4] [%]	inhibition [5] [%]	further results
C=CCN1C(=O)[C@@H]2CCCCN2C(=O)[C@H]2CCCCN2C(=O)[C@H]([C@@H](C)CC)NC(=O)[C@@H](Cc2ccccc2)NC(=O)[C@@H]2CCCN2C(=O)[C@H]1Cc1ccccc1 (cyclo(I[dPip][Pip][X1]P[dF]))	190			77	45	
CC[C@H](C)[C@@H]1NC(=O)[C@@H](Cc2ccccc2)NC(=O)[C@@H]2CCCN2C(=O)[C@@H](Cc2ccccc2)NC(=O)[C@@H]2CCCCN2C(=O)[C@H]2CCCCN2C1=O (cyclo(I[dPip][Pip][dF]P[dF]))	340	11000				
CC[C@H](C)[C@@H]1NC(=O)[C@@H](Cc2cccc3ccccc23)NC(=O)[C@@H]2CCCN2C(=O)[C@@H](Cc2cnc[nH]2)NC(=O)[C@@H]2CCCCN2C(=O)[C@H]2CCCCN2C1=O (cyclo(I[dPip][Pip][dH]P[d1Nal]))	8.3	720	750			
CC[C@H](C)[C@@H]1NC(=O)[C@@H](Cc2c[nH]c3ccccc23)NC(=O)[C@@H]2CCCN2C(=O)[C@@H](Cc2c[nH]cn2)NC(=O)[C@@H]2CCCCN2C(=O)[C@H]2CCCCN2C1=O (cyclo(I[dPip][Pip][dH]P[dW]))						AD50 [7]: 1.3 µg/kg
CC[C@H](C)[C@@H]1NC(=O)[C@@H](Cc2ccccc2)NC(=O)[C@@H]2CCCN2C(=O)[C@@H](CCCCN)NC(=O)[C@@H]2CCCCN2C(=O)[C@H]2CCCCN2C1=O (cyclo(I[dPip][Pip][dK]P[dF]))	410	7400	1100			
CC[C@H](C)[C@@H]1NC(=O)[C@@H](Cc2ccccc2)NC(=O)[C@@H]2CCCN2C(=O)[C@@H](C)N(C)C(=O)[C@@H]2CCCCN2C(=O)[C@H]2CCCCN2C1=O (cyclo(I[dPip][Pip][dNMeA]P[dF]))	1200			12	20	
CC[C@H](C)[C@@H]1NC(=O)[C@@H](Cc2ccccc2)NC(=O)[C@@H]2CCCN2C(=O)[C@@H](Cc2ccccc2)N(C)C(=O)[C@@H]2CCCCN2C(=O)[C@H]2CCCCN2C1=O (cyclo(I[dPip][Pip][dNMeF]P[dF]))	200	3800	3200			
CC[C@H](C)[C@@H]1NC(=O)[C@@H](Cc2ccccc2)NC(=O)[C@H](C)N(C)C(=O)[C@@H](Cc2ccccc2)N(C)C(=O)[C@@H]2CCCCN2C(=O)[C@H]2CCCCN2C1=O (cyclo(I[dPip][Pip][dNMeF][NMeA][dF]))	930			37	34	
CC[C@H](C)[C@@H]1NC(=O)[C@@H](Cc2c[nH]c3ccccc23)NC(=O)[C@@H]2CCCN2C(=O)[C@@H](Cc2c[nH]cn2)N(C)C(=O)[C@@H]2CCCCN2C(=O)[C@H]2CCCCN2C1=O (cyclo(I[dPip][Pip][dNMeH]P[dW]))			14000			
CC[C@H](C)[C@@H]1NC(=O)[C@@H](Cc2c[nH]c3ccccc23)NC(=O)[C@@H]2CCCN2C(=O)[C@@H](Cc2ccccc2)N(C)C(=O)[C@H](CCCN)NC(=O)[C@H]2CCC=NN2C1=O (cyclo(I[dPiz(1,6-dehydro)][Orn][dNMeF]P[dW]))	25					
CC[C@H](C)[C@@H]1NC(=O)[C@@H](Cc2ccccc2)NC(=O)[C@@H]2CCCN2C(=O)[C@@H](Cc2ccccc2)N(C)C(=O)[C@@H]2CCCCN2C(=O)[C@H]2CCC=NN2C1=O (cyclo(I[dPiz(1,6-dehydro)][Pip][dNMeF]P[dF]))	15	1200	3500			
CC[C@H](C)[C@@H]1NC(=O)[C@@H](Cc2ccccc2)NC(=O)[C@@H]2CCCN2C(=O)[C@@H](Cc2ccccc2)N(C)C(=O)[C@@H]2CCC=NN2C(=O)[C@H]2CCC=NN2C1=O (cyclo(I[dPiz(1,6-dehydro)][Piz(1,6-dehydro)][dNMeF]P[dF]))	18					
CC(C)C[C@@H]1NC(=O)[C@@H](Cc2c[nH]c3ccccc23)NC(=O)[C@@H]2CCCN2C(=O)[C@@H](Cc2c[nH]cn2)NC(=O)[C@@H]2CCCCN2C(=O)[C@H]2CCCCN2C1=O (cyclo(L[dPip][Pip][dH]P[dW]))		11000	3000			
CCCC[C@@H]1NC(=O)[C@@H](Cc2c[nH]c3ccccc23)NC(=O)[C@@H]2CCCN2C(=O)[C@@H](Cc2c[nH]cn2)NC(=O)[C@@H]2CCCCN2C(=O)[C@H]2CCCCN2C1=O (cyclo([Nle][dPip][Pip][dH]P[dW]))		1700	1300			
CC[C@H](C)[C@@H]1NC(=O)[C@@H](Cc2ccccc2)NC(=O)[C@@H]2CCCN2C(=O)[C@@H](Cc2ccccc2)N(C)C(=O)[C@@H]2CCCN2C(=O)[C@H]2CCCN2C1=O (cyclo([dNMeF]P[dF]I[dP]P))		81000	3300			
